How the values were obtained:
[1] = tested on: Murine melanoma (B16) cells; assay: Evaluation of the degree of melanin production inhibition in α-MSH-stimulated B16 cells; assay type: cell-based; conditions: B16 cells with α-MSH; 12.5, 25, 50 or 100 μM soyasaponin Aa; 3 days; absorbance at 490 nm
Method: Murine melanoma (B16) cells purchased from the Korean Cell Line Bank were seeded into each well of a 12-well plate (5×10^4 cells/well) in DMEM (Dulbecco's modified eagle's medium) containing FBS (fetal calf serum) or a medium having growth rates equivalent to or higher than those in the DMEM. The cells were cultured at 37° C. with 5% CO2 until they reached about 80% confluency. After cultivation, the medium was removed and samples were replaced in medium diluted with 12.5, 25, 50 or 100 μM of soyasaponin Aa, or 100 ppm (corresponding to 700 μM) of kojic acid, and then cultured at 37° C. with 5% CO2 for 3 days. At this time, α-MSH (melanin stimulation hormone), which is a substance that allows B16 cells to better form melanin during cultivation, was included together in the medium of the other treatment groups except for the untreated control group. […] The concentration range of the samples was determined through toxicity tests. […] The obtained solution was measured for the absorbance at 490 nm using an ELISA reader (Synergy 2, BioTek. USA), and the amount of protein was determined by the Bradford assay, and then the amount of melanin per constant number of cells or the amount of melanin per constant amount of protein was estimated. […]

[2] = target: T1, melanocyte-derived tyrosinase (melan-a cell extract) (Mus musculus, UniProt P11344); assay: Cell extract tyrosinase inhibitory activity (DOPA to dopachrome colorimetric reaction); assay type: biochemical; conditions: pH 6.8, substrate DOPA, absorbance at 475 nm
T1 construct: melan-a cell extract mixture; endogenous in cells; host or cells: melan-a cells (cell extract)
T1 sequence (P11344 19-533): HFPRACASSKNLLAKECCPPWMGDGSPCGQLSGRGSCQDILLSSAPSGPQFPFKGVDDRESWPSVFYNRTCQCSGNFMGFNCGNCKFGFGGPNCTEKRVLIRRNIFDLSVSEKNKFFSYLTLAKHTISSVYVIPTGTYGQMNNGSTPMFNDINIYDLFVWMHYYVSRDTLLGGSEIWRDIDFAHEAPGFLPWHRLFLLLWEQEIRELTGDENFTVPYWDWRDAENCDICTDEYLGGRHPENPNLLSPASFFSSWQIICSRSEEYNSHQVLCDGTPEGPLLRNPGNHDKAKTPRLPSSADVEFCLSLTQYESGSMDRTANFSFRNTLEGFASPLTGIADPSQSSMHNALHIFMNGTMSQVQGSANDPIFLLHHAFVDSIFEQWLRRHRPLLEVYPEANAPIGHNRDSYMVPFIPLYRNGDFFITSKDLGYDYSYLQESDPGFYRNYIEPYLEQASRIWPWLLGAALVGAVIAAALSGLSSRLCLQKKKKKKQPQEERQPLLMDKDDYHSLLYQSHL
Method: Tyrosinase is an important enzyme that regulates the first step that is performed to produce melanin in the process of pigmentation, and tyrosinase inhibitory activity is known to be an important efficacy mechanism for whitening. Therefore, in this test example, the ability of soyasaponin to inhibit the activity of tyrosinase was evaluated using a method for inhibiting the activity of cell extract tyrosinase. The method for evaluating the cell extract tyrosinase inhibitory activity is based on a phenomenon that melanocyte-derived tyrosinase causes a colorimeteric reaction by allowing substrate DOPA (3,4-dihydroxyphenylalanine; colorless) to form dopacrome (reddish brown).
Specific experimental methods are as follows. Kojic acid as a positive control and soyasaponin Aa as an evaluation material were prepared by concentrating four times the concentration to be evaluated. Then, the reaction mixture (pH 6.8, 0.1M potassium phosphate buffer, melan-a cell extract mixture) was prepared in a 96 well plate. Since there may be colors depending on the evaluation material, a reaction mixture containing no cell extract liquid was made into a vehicle for background removal. […] Absorbance was measured at 475 nm using an ELISA reader (Synergy2, BioTek, USA) at intervals of 10 minutes until sufficient colorimeteric reaction had occurred.

In the case of `CC(=O)O[C@@H]1[C@@H](OC(C)=O)[C@H](O[C@@H]2[C@@H](O)[C@H](O[C@@H]3[C@H](O)C(C)(C)C[C@H]4C5=CC[C@@H]6[C@@]7(C)CC[C@H](O[C@@H]8O[C@H](C(=O)O)[C@@H](O)[C@H](O)[C@H]8O[C@@H]8O[C@H](CO)[C@H](O)[C@H](O)[C@H]8O[C@@H]8O[C@H](CO)[C@@H](O)[C@H](O)[C@H]8O)[C@](C)(CO)[C@@H]7CC[C@@]6(C)[C@]5(C)CC[C@@]34C)OC[C@@H]2O)OC[C@H]1OC(C)=O` [soyasaponin Aa], the “synthesis of melanin (intracellular FIG. 3 and extracellular FIG. 4)” value [1] was “effectively inhibited” and the “activity of tyrosinase (FIG. 5)” value [2] was “effectively inhibited”.

From patent publication US20180318197A1, “SOYASAPONIN-CONTAINING COMPOSITION FOR SKIN WHITENING” (AMOREPACIFIC CORPORATION, priority 2015, published 2018)
